# In US10377778B2, “Lead and thorium compounds” (Sciencons AS, priority 2017, dated 2019):
# Legend:
# [1] = Radiolytic stability: TLC measured RCP when kept in ^224Ra solution; format: physicochemical
# Method: Thin layer chromatography (TLC) was performed using chromatography strips (model #150-772, Biodex Medical Systems Inc, Shirley, N.Y., USA). A formulation buffer (FB) consisting of 7.5% human serum albumin and 5 mM EDTA in DPBS and adjusted to approximately pH 7 with NaOH was mixed with the antibody conjugates in ratio 2:1 for at least 5 minutes before application to the strips to determine free radionuclide. A small beaker with about 0.5 ml of 0.9% NaCl was used to place strips with a sample spot in. To the strip was typically added 1-4 μl of sample at approximately 10% above the bottom of the strip. After the solvent front had moved to about 20% from the top of the strip, the strip was cut in half and each half was placed in a 5 ml test tube for counting. In this system radiolabeled ligand stays at the bottom half while radionuclide complexed with EDTA migrates to the upper half. It was verified that free cations of both ^212Pb and ^177Lu would complex with EDTA and moved to the top.
# Initial activity in the solution was about 5 MBq/ml causing an absorbed radiation dose to the solution of about 1.8 Gy after 24 h and 3.3 Gy after 48 hours. The data (Table 2) indicate a slight decline at the longest exposure time but in general a relatively strong radiolytic resistance of the ligand was observed, which is compatible with centralized production and shipment to the end user ^224Ra-based generator solution with or without removal of ^224Ra prior to the administration of product.
# PSMA-positive xenografts = experiment: Biodistribution of single targeting solution (purified ^212Pb-ligand) in mice with PSMA-positive xenografts; format: in vivo
# Method: Using a ^212Pb/^224Ra solution for reaction with p-SCN-Bn-TCMC-PSMA ligand 1 as described, purified ^212Pb-p-SCN-Bn-TCMC-PSMA ligand 1 was purified using a Sephadex G-10 gel filtration column and about 30 kBq and 300 ng of the purified radioligand product was injected per animal. […] The tumor-to-tissue ratios (Table 4) indicates suitability for radioligand targeting with ^212Pb.
# [2] = test system: C4-2 PSMA positive human prostate cells xenografts; experiment: Comparative therapy experiment in nude mice with C4-2 xenografts; format: in vivo; details: 52 MBq ^177Lu-PSMA-617 or 320 kBq ^212Pb-ligand 1
# Method: Male nude mice were inoculated in the flanks with C4-2 PSMA positive human prostate cells and 2 weeks later when tumors were 5-7 mm in diameters. Groups of 8 animals each received saline, 52 MBq of ^177Lu-PSMA-617 or 320 kBq of ^212Pb-p-SCN-Bn-TCMC-PSMA ligand 1. Animals were sacrificed when tumor size reached 20 mm due to animal welfare requirements. […] For ^212Pb the effective half-life was assumed to be 10.6 h, 10% of injected dose per gram decays in tumor and 100% of radiation in a tumor is absorbed in the tumor, 100% retention of ^212Pb and daughters in the tumors and 8 MeV radiation energy per decay. The tumor dosimetry for the injected activities gave on average 35.9 Gy to tumors for ^177Lu-PSMA-617 and 2.06 Gy to tumors for ^212Pb-p-SCN-Bn-TCMC-PSMA ligand 1 groups respectively.
smiles,measurement,setting,value
NC(=O)CN1CCN(CC(N)=O)CCN(CC(N)=O)C(Cc2ccc(NC(=S)NCC3CCC(C(=O)NC(Cc4ccc5ccccc5c4)C(=O)NCCCCC(NC(=O)NC(CCC(=O)O)C(=O)O)C(=O)O)CC3)cc2)CN(CC(N)=O)CC1.[212Pb+2] (stereo not shown) [^212Pb-p-SCN-Bn-TCMC-PSMA ligand 1],TLC measured RCP,[1]; kept in ^224Ra solution 0.5 h,93.81%
same,TLC measured RCP,[1]; kept in ^224Ra solution 1 h,92.84%
same,TLC measured RCP,[1]; kept in ^224Ra solution 4 h,94.75%
same,TLC measured RCP,[1]; kept in ^224Ra solution 24 h,94.85%
same,TLC measured RCP,[1]; kept in ^224Ra solution 48 h,94.85%
same,Tumor/Femur ratio,PSMA-positive xenografts; 1 h,30.4
same,Tumor/blood ratio,PSMA-positive xenografts; 1 h,14.9
same,Tumor/kidneys ratio,PSMA-positive xenografts; 1 h,0.41
same,Tumor/muscle ratio,PSMA-positive xenografts; 1 h,42.6
same,Tumor/Femur ratio,PSMA-positive xenografts; 2 h,39.7
same,Tumor/blood ratio,PSMA-positive xenografts; 2 h,29.4
same,Tumor/kidneys ratio,PSMA-positive xenografts; 2 h,0.62
same,Tumor/muscle ratio,PSMA-positive xenografts; 2 h,72.1
same,Tumor/Femur ratio,PSMA-positive xenografts; 4 h,24.8
same,Tumor/blood ratio,PSMA-positive xenografts; 4 h,30.7
same,Tumor/kidneys ratio,PSMA-positive xenografts; 4 h,1.54
same,Tumor/muscle ratio,PSMA-positive xenografts; 4 h,61.5
same,Tumor/Femur ratio,PSMA-positive xenografts; 8 h,19.8
same,Tumor/blood ratio,PSMA-positive xenografts; 8 h,112.7
same,Tumor/kidneys ratio,PSMA-positive xenografts; 8 h,3.60
same,Tumor/muscle ratio,PSMA-positive xenografts; 8 h,366.2
same,"Biodistribution, Bladder",PSMA-positive xenografts; 1 h post injection,36.86 % ID/g
same,"Biodistribution, Bladder",PSMA-positive xenografts; 2 h post injection,6.85 % ID/g
same,"Biodistribution, Bladder",PSMA-positive xenografts; 4 h post injection,3.53 % ID/g
same,"Biodistribution, Bladder",PSMA-positive xenografts; 8 h post injection,0.26 % ID/g
same,"Biodistribution, Blood",PSMA-positive xenografts; 1 h post injection,1.77 % ID/g
same,"Biodistribution, Blood",PSMA-positive xenografts; 2 h post injection,0.54 % ID/g
same,"Biodistribution, Blood",PSMA-positive xenografts; 4 h post injection,0.46 % ID/g
same,"Biodistribution, Blood",PSMA-positive xenografts; 8 h post injection,0.13 % ID/g
same,"Biodistribution, Brain",PSMA-positive xenografts; 1 h post injection,0.61 % ID/g
same,"Biodistribution, Brain",PSMA-positive xenografts; 2 h post injection,0.04 % ID/g
same,"Biodistribution, Brain",PSMA-positive xenografts; 4 h post injection,0.07 % ID/g
same,"Biodistribution, Brain",PSMA-positive xenografts; 8 h post injection,0.02 % ID/g
same,"Biodistribution, Femur",PSMA-positive xenografts; 1 h post injection,0.87 % ID/g
same,"Biodistribution, Femur",PSMA-positive xenografts; 2 h post injection,0.40 % ID/g
same,"Biodistribution, Femur",PSMA-positive xenografts; 4 h post injection,0.57 % ID/g
same,"Biodistribution, Femur",PSMA-positive xenografts; 8 h post injection,0.74 % ID/g
same,"Biodistribution, Heart",PSMA-positive xenografts; 1 h post injection,0.78 % ID/g
same,"Biodistribution, Heart",PSMA-positive xenografts; 2 h post injection,0.20 % ID/g
same,"Biodistribution, Heart",PSMA-positive xenografts; 4 h post injection,0.52 % ID/g
same,"Biodistribution, Heart",PSMA-positive xenografts; 8 h post injection,0.09 % ID/g
same,"Biodistribution, Kidneys",PSMA-positive xenografts; 1 h post injection,63.96 % ID/g
same,"Biodistribution, Kidneys",PSMA-positive xenografts; 2 h post injection,25.41 % ID/g
same,"Biodistribution, Kidneys",PSMA-positive xenografts; 4 h post injection,9.19 % ID/g
same,"Biodistribution, Kidneys",PSMA-positive xenografts; 8 h post injection,4.07 % ID/g
same,"Biodistribution, Large intestine",PSMA-positive xenografts; 1 h post injection,0.25 % ID/g
same,"Biodistribution, Large intestine",PSMA-positive xenografts; 2 h post injection,0.39 % ID/g
same,"Biodistribution, Large intestine",PSMA-positive xenografts; 4 h post injection,0.18 % ID/g
same,"Biodistribution, Large intestine",PSMA-positive xenografts; 8 h post injection,0.17 % ID/g
same,"Biodistribution, Liver",PSMA-positive xenografts; 1 h post injection,2.39 % ID/g
same,"Biodistribution, Liver",PSMA-positive xenografts; 2 h post injection,1.33 % ID/g
same,"Biodistribution, Liver",PSMA-positive xenografts; 4 h post injection,1.55 % ID/g
same,"Biodistribution, Liver",PSMA-positive xenografts; 8 h post injection,1.25 % ID/g
same,"Biodistribution, Lungs",PSMA-positive xenografts; 1 h post injection,1.19 % ID/g
same,"Biodistribution, Lungs",PSMA-positive xenografts; 2 h post injection,0.40 % ID/g
same,"Biodistribution, Lungs",PSMA-positive xenografts; 4 h post injection,0.75 % ID/g
same,"Biodistribution, Lungs",PSMA-positive xenografts; 8 h post injection,0.17 % ID/g
same,"Biodistribution, Muscle",PSMA-positive xenografts; 1 h post injection,0.62 % ID/g
same,"Biodistribution, Muscle",PSMA-positive xenografts; 2 h post injection,0.22 % ID/g
same,"Biodistribution, Muscle",PSMA-positive xenografts; 4 h post injection,0.23 % ID/g
same,"Biodistribution, Muscle",PSMA-positive xenografts; 8 h post injection,0.04 % ID/g
same,"Biodistribution, Prostate",PSMA-positive xenografts; 1 h post injection,13.95 % ID/g
same,"Biodistribution, Prostate",PSMA-positive xenografts; 2 h post injection,3.80 % ID/g
same,"Biodistribution, Prostate",PSMA-positive xenografts; 4 h post injection,1.48 % ID/g
same,"Biodistribution, Prostate",PSMA-positive xenografts; 8 h post injection,−0.10 % ID/g
same,"Biodistribution, Salivary gland",PSMA-positive xenografts; 1 h post injection,0.72 % ID/g
same,"Biodistribution, Salivary gland",PSMA-positive xenografts; 2 h post injection,0.32 % ID/g
same,"Biodistribution, Salivary gland",PSMA-positive xenografts; 4 h post injection,0.34 % ID/g
same,"Biodistribution, Salivary gland",PSMA-positive xenografts; 8 h post injection,0.15 % ID/g
same,"Biodistribution, Skin",PSMA-positive xenografts; 1 h post injection,1.70 % ID/g
same,"Biodistribution, Skin",PSMA-positive xenografts; 2 h post injection,0.47 % ID/g
same,"Biodistribution, Skin",PSMA-positive xenografts; 4 h post injection,0.42 % ID/g
same,"Biodistribution, Skin",PSMA-positive xenografts; 8 h post injection,0.23 % ID/g
same,"Biodistribution, Skull",PSMA-positive xenografts; 1 h post injection,0.77 % ID/g
same,"Biodistribution, Skull",PSMA-positive xenografts; 2 h post injection,0.38 % ID/g
same,"Biodistribution, Skull",PSMA-positive xenografts; 4 h post injection,0.37 % ID/g
same,"Biodistribution, Skull",PSMA-positive xenografts; 8 h post injection,0.63 % ID/g
same,"Biodistribution, Small intestine",PSMA-positive xenografts; 1 h post injection,0.34 % ID/g
same,"Biodistribution, Small intestine",PSMA-positive xenografts; 2 h post injection,0.23 % ID/g
same,"Biodistribution, Small intestine",PSMA-positive xenografts; 4 h post injection,0.30 % ID/g
same,"Biodistribution, Small intestine",PSMA-positive xenografts; 8 h post injection,0.08 % ID/g
same,"Biodistribution, Spleen",PSMA-positive xenografts; 1 h post injection,1.24 % ID/g
same,"Biodistribution, Spleen",PSMA-positive xenografts; 2 h post injection,0.44 % ID/g
same,"Biodistribution, Spleen",PSMA-positive xenografts; 4 h post injection,0.54 % ID/g
same,"Biodistribution, Spleen",PSMA-positive xenografts; 8 h post injection,0.36 % ID/g
same,"Biodistribution, Stomach",PSMA-positive xenografts; 1 h post injection,0.16 % ID/g
same,"Biodistribution, Stomach",PSMA-positive xenografts; 2 h post injection,0.22 % ID/g
same,"Biodistribution, Stomach",PSMA-positive xenografts; 4 h post injection,0.10 % ID/g
same,"Biodistribution, Stomach",PSMA-positive xenografts; 8 h post injection,0.09 % ID/g
same,"Biodistribution, Testes",PSMA-positive xenografts; 1 h post injection,4.41 % ID/g
same,"Biodistribution, Testes",PSMA-positive xenografts; 2 h post injection,0.56 % ID/g
same,"Biodistribution, Testes",PSMA-positive xenografts; 4 h post injection,0.38 % ID/g
same,"Biodistribution, Testes",PSMA-positive xenografts; 8 h post injection,0.12 % ID/g
same,"Biodistribution, Tumor",PSMA-positive xenografts; 1 h post injection,26.44 % ID/g
same,"Biodistribution, Tumor",PSMA-positive xenografts; 2 h post injection,15.87 % ID/g
same,"Biodistribution, Tumor",PSMA-positive xenografts; 4 h post injection,14.14 % ID/g
same,"Biodistribution, Tumor",PSMA-positive xenografts; 8 h post injection,14.65 % ID/g
same,"Biodistribution, Urine",PSMA-positive xenografts; 1 h post injection,253.36 % ID/g
same,"Biodistribution, Urine",PSMA-positive xenografts; 2 h post injection,250.85 % ID/g
same,"Biodistribution, Urine",PSMA-positive xenografts; 4 h post injection,32.12 % ID/g
same,"Biodistribution, Urine",PSMA-positive xenografts; 8 h post injection,6.76 % ID/g
same,Survival at day 30 after treatment,"[2]; groups of 8, saline group 0%",75%
same,Median survival,[2]; saline group 15 days,> 30 days
